Results published in patent publication US7378446B2, “Compound having anti-HCV activity and process for producing the same” (Chugai Seiyaku Kabushiki Kaisha, priority 2003, dated 2008).

Experiments:
[1] = test system: Firefly luciferase HCV replicon cells (3-1); test: Replicon assay (firefly luciferase HCV replicon); assay type: cell-based; details: Hepatitis C virus, 72 h; Huh7-derived luciferase HCV replicon cells, 3 days culture with compound, Steady-Glo luminescence
Experimental: (§1) A construct was prepared in which a luciferase gene derived from firefly was introduced as a reporter gene in HCV-RNA to assay the number of copies of HCV-RNA. The luciferase gene was introduced in the form of fusing with neomycin-resistance gene directly below the IRES (Internal Ribosome Entry Site) of the HCV gene in accordance with the method of Krieger, et al. (J. Virol. 75:4614). After synthesizing this RNA in vitro, it was introduced into Huh7 cell by electroporation and isolated as G418-resistant clone. Firefly luciferase HCV replicon cells (3-1) were suspended in Dulbecco's MEM (Gibco cat. no. 10569-010) containing 5% fetal bovine serum (Hyclone cat. no. SH30071.03), inoculated into the wells of a 96-well plate at 5000 cells/well and then cultured overnight at 37° C. and 5% CO2. Approximately 20 hours later, the diluted test compound was added at 10 μl per well followed by culturing for another 3 days. Two series of assay plates were prepared, and the assay was carried out using a white plate for one series and a clear plate for the other series. Following completion of culturing, the white plate was used for the Steady-Glo Luciferase Assay System (Promega cat. no. E2520). Namely, after adding 100 μl of reagent per well, mixing by a pipette 3 to 4 times and then allowing to stand for 5 minutes, luminescence was measured with the 1450 MicroBeta TRILUX (Wallac). Values obtained in the absence of cell addition were used as background values and subtracted from all values to calculate the IC50 (50% inhibitory concentration) of the drug based on a value of 0% inhibition for the value in the absence of addition of test compound.

in vitro = assay type: cell-based; details: human; replicon cells, 3 days culture with compound, Cell Counting Kit 8, absorbance 450 nm; read-out: Cytotoxicity CC50
Experimental: as §1
The Cell Counting Kit 8 (Dojindo cat. no. CK04) was used to determine the cytotoxicity. Namely, 10 μl of Cell Counting Kit 8 were added to a clear plate and incubated for 30 to 60 minutes at 37° C. Absorbance at a wavelength of 450 nm and a control wavelength of 630 nm was measured with a 96-well plate reader. Values in the absence of cell addition were used as background values and subtracted from all values to calculate the CC50 (50% cell inhibitory concentration) of the drug based on a value of 0% inhibition for the value in the absence of addition of drug.

SMILES | IC50 [1] [nM] | CC50 (in vitro) [nM]
CCCCCCCC(=O)CCCCCC/C=C/[C@H](C(=O)N[C@@H](Cc1ccc(-n2cc(C(=O)OCC)nn2)cc1)C(=O)O)[C@@](O)(CC(=O)O)C(=O)O [Compound 96] | 9 | > 1000
CCCCCCCC(=O)CCCCCC/C=C/[C@H](C(=O)N[C@@H](Cc1cccnc1)C(=O)O)[C@@](O)(CC(=O)O)C(=O)O [Compound 97] | 302 | > 1000
CC(C)CCOc1ccc(C[C@H](NC(=O)[C@@H](/C=C/CCCCCCC(=O)CCCCCCF)[C@@](O)(CC(=O)O)C(=O)O)C(=O)O)cc1 [Compound 98] | 21 | > 1000
COCCCCCCC(=O)CCCCCC/C=C/[C@H](C(=O)N[C@@H](Cc1ccc(OCCC(C)C)cc1)C(=O)O)[C@@](O)(CC(=O)O)C(=O)O [Compound 99] | 56 | > 1000
CCCCCCCCCC(=O)CCCC/C=C/[C@H](C(=O)N[C@@H](Cc1ccc(-c2ccccc2)cc1)C(=O)O)[C@@](O)(CC(=O)O)C(=O)O [Compound 100] | 92 | > 1000
CCCCCCCCCC(=O)CCCC/C=C/[C@H](C(=O)N[C@@H](Cc1ccc(Oc2ccccc2)cc1)C(=O)O)[C@@](O)(CC(=O)O)C(=O)O [Compound 101] | 46 | > 1000
CCCCCCC(=O)CCCCCC/C=C/[C@H](C(=O)N[C@@H](Cc1ccc(-c2ccccc2)cc1)C(=O)O)[C@@](O)(CC(=O)O)C(=O)O [Compound 102] | 5 | > 1000
CCCCCCC(=O)CCCCCC/C=C/[C@H](C(=O)N[C@@H](Cc1ccc(Oc2ccccc2)cc1)C(=O)O)[C@@](O)(CC(=O)O)C(=O)O [Compound 103] | 11 | > 1000
CCCC#CCOc1ccc(C[C@H](NC(=O)[C@@H](/C=C/CCCCCCC(=O)CCCCCCC)[C@@](O)(CC(=O)O)C(=O)O)C(=O)O)cc1 [Compound 104] | 1 | > 1000
C#CCOc1ccc(C[C@H](NC(=O)[C@@H](/C=C/CCCCCCC(=O)CCCCCCC)[C@@](O)(CC(=O)O)C(=O)O)C(=O)O)cc1 [Compound 105] | 3 | > 1000
C#CCCCOc1ccc(C[C@H](NC(=O)[C@@H](/C=C/CCCCCCC(=O)CCCCCCC)[C@@](O)(CC(=O)O)C(=O)O)C(=O)O)cc1 [Compound 106] | 1 | > 1000
CC#CCCOc1ccc(C[C@H](NC(=O)[C@@H](/C=C/CCCCCCC(=O)CCCCCCC)[C@@](O)(CC(=O)O)C(=O)O)C(=O)O)cc1 [Compound 107] | 1 | > 1000
CCCCCCCC(=O)CCCCCC/C=C/[C@H](C(=O)N[C@@H](Cc1ccc(OCC#CCN(CC)CC)cc1)C(=O)O)[C@@](O)(CC(=O)O)C(=O)O [Compound 108] | 3 | > 1000
CCC#CCOc1ccc(C[C@H](NC(=O)[C@@H](/C=C/CCCCCCC(=O)CCCCCCC)[C@@](O)(CC(=O)O)C(=O)O)C(=O)O)cc1 [Compound 109] | 2 | > 1000
CCCCCCCC#CCOc1ccc(C[C@H](NC(=O)[C@@H](/C=C/CCCCCCC(=O)CCCCCCC)[C@@](O)(CC(=O)O)C(=O)O)C(=O)O)cc1 [Compound 110] | 5 | > 1000
CCCCCCCC(=O)CCCCCC/C=C/[C@H](C(=O)N[C@@H](Cc1ccc(OCC#CC#CC(C)(C)C)cc1)C(=O)O)[C@@](O)(CC(=O)O)C(=O)O [Compound 111] | 6 | > 1000
